Reference: PMC9322761, “Design, Synthesis and Biological Characterization of Histone Deacetylase 8 (HDAC8) Proteolysis Targeting Chimeras (PROTACs) with Anti-Neuroblastoma Activity” (International Journal of Molecular Sciences, 2022)

What was measured:
HDAC8 [1] = test system: HDAC8; parameters: method as in PMID 35311871; settings: Jurkat cells; cited from earlier work
[2] = Non-enzymatic stability in assay medium (HPLC); settings: 37 °C, 10 µM, pH7.4
Experimental: Non-enzymatic stability of selected final compounds was determined using 10 µM concentration of the tested PROTACs in one of the following assay media; Dulbecco’s modified Eagle medium (DMEM) (50%)/dimethylsulfoxid (10%)/acetonitrile (40%) or DMEM (50%)/dimethylsulfoxid (10%)/methanol (40%) mixture at pH7.4. The formed solution mixtures were incubated for 0, 6, 12, and 24 h at 37 °C. Analyte decomposition was monitored by HPLC using XTerra RP18 column (3.5 mm, 3.9 mm × 100 mm) from the manufacturer Waters (Milford, MA, USA) and two LC-10AD pumps, a SPD-M10A VP PDA detector, and a SIL-HT autosampler, all from the manufacturer Shimadzu (Kyoto, Japan).

SK-N-BE(2)-C cells [3] = test: Colony formation assay in neuroblastoma cells; assay type: cell-based, human; settings: 5 and 10 μM, treatment 96 h, then 6 days without treatment
Experimental: In order to measure the functional consequence of HDAC8 inhibition, two different cell lines were used: SK-N-BE(2)-C cells, which display MYCN amplification and non-functional p53; and IMR-32 cells having p53 wild type, which both respond with growth arrest and signs of neuronal differentiation upon knockdown or selective inhibition of HDAC8. Growth arrest was determined by colony formation and viability assays. Cells were treated with 5 and 10 μM of each of the CRBN_ based HDAC8 PROTACs having a triazole linker (CRBN_1d, CRBN_1e, CRBN_1f) for 96 h, followed by culturing for another 6 days without treatment (Figure 5A). This assesses whether the treatment impairs the clonogenic growth capacity of tumor cells, indicating effectiveness of compounds on the survival and proliferation of tumor cells.
In six-well plates, 500 cells were seeded and treated as indicated. Viable colonies were stained after a minimum of 10 days with crystal violet. For quantification, the mean intensity of each well of the 8-bit binary picture was measured with ImageJ software (U. S. National Institutes of Health, Bethesda, MD, USA; http://imagej.nih.gov/ij/ (accessed on 1 March 2022)).
Figure 5 (A) Neuroblastoma SK-N-BE(2)-C cells; Colony Assay, 10 days (compound treatment within first 96 h). Stained with crystal violet and quantified with ImageJ. (B,C) Trypan Blue assay for detection of dead cells. Neuroblastoma IMR-32 cells were either treated with 5 µM (B) or 10 µM (C). (D,E) Cell proliferation assessed via counting of viable cells. IMR-32 cells were either treated with 5 µM (D) or 10 µM (E) PROTACs. HDAC8i PCI-34501 served as a positive control, untreated (MEM) and solvent (DMSO) treated cells served as negative controls.

SK-N-BE(2)-C cells [4] = test: Cell differentiation assay (neurite-like outgrowths, crystal violet); assay type: cell-based, human; settings: combined with ATRA, 6–10 days
Text: As HDAC8 inhibition is known to induce signs of neuronal differentiation, such as neurite-like outgrowths in neuroblastoma cells), we treated SK-N-BE(2)-C cells with CRBN_1b, CRBN_1e, HyT_1m, and PCI-34051 for 6–10 days then stained the cells with crystal violet to visualize neurite-like outgrowths. For comparison, we treated the cells with the known neuronal differentiation inducer retinoic acid (ATRA) which is a known drug, that is applied for neuroblastoma treatment under some circumstances.
Adherent cells plated on 6-well plates were treated as indicated. For staining, cells were rinsed once with (PBS) and incubated with crystal violet staining solution (1% (w/v) in 70% EtOH) for 1 min. Subsequently, the staining solution was removed and cells were rinsed two to three times with autoclaved purified water and allowed to dry. All-trans retinoic acid (ATRA, Sigma-Aldrich, stock concentration 10 mM) was dissolved in ethanol (EtOH, Sigma-Aldrich, St. Louis, USA).
Figure 7 (A) SK-N-BE(2)-C cells, treated for 10 days. Scale bar: 500 µm. Stained with crystal violet. (B) SK-N-BE(2)-C cells, treated for 6 days. Stained with crystal violet.

[5] = Cytotoxicity on HEK293 cells (Alamar Blue assay); settings: human
Experimental: The cells were seeded out at 1.5 × 10^3 cells per well in a 96-well cell culture plate (TPP, Techno Plastic Products AG, Trasadingen, Switzerland). […] After 24 h, Alamar Blue reagent (Invitrogen, Carlsbad, CA, USA) was added according to the manufacturer’s instructions and incubated again for 21 h before the samples were analyzed.

HDAC8 [6] = settings: cited from earlier work

## O=C1CCC(N2C(=O)c3cccc(NCCCCCCCCCCCNC(=O)c4cccc(SCc5cn(-c6cccc(C(=O)NO)c6)nn5)c4)c3C2=O)C(=O)N1 (stereo not shown) [XIII]
HDAC8 [1]
  HDAC8 degradation: efficient degradation of HDAC8 enzyme

## COc1ccc(C(=O)NO)cc1NCc1ccc(OCc2cn(CCCCCC(=O)Nc3cccc4c3C(=O)N(C3CCC(=O)NC3=O)C4=O)nn2)cc1 (stereo not shown) [CRBN_1e]
[2]; 6 h
  Non-enzymatic stability, compound remaining: 91.6%
[2]; 24 h
  Non-enzymatic stability, compound remaining: 65.5%
SK-N-BE(2)-C cells [3]
  Effect on colony formation: strongest effect on colony formation
SK-N-BE(2)-C cells [4]
  Differentiation phenotype (neurite-like outgrowths): substantially enhanced the differentiation phenotype

## COc1cccc2c1C(=O)c1c(O)c3c(c(O)c1C2=O)C[C@@](O)(C(C)=O)C[C@@H]3O[C@H]1C[C@H](N)[C@H](O)[C@H](C)O1 [Daunorubicin]
[5]
  IC50 at 48 h: 2.1 µM

## N[C@H](Cc1cccc(Cl)c1)C(=O)N1CCN(C(=O)c2cc(F)ccc2F)CC1 [II]
HDAC8 [6]
  IC50: 0.2 µM
